Data from patent publication US11884671B2, “Purinone compounds and their use in treating cancer” (ASTRAZENECA AB, priority 2018, dated 2024).

Columns and labels:
[1] = target: Full length human DNAPK protein (Homo sapiens (Human), UniProt P78527); assay: DNAPK enzyme potency assay (DNA-PK enz), TR-FRET; format: biochemical; details: arithmetic mean of two or more experiments, 18 μM ATP; for IC50: read-out: DNA-PK enz pIC50 (converted)
Excerpt: The following assays were used to measure the effects of the compounds described herein: a) DNAPK enzyme potency assay; b) DNAPK cellular potency assay. During the description of the assays, generally: • i. The following abbreviations have been used; DMSO=Dimethyl Sulphoxide; DTT=Dithiothreitol; EDTA=Ethylenediaminetetraacetic Acid, TR-FRET=Time Resolved Fluorescence Resonance Energy Transfer, ATP=Adenosine triphosphate, DTT=Dithiothreitol, DNA=Deoxyribonucleic acid, HEPES=(2-hydroxyethyl)-1-piperazineethanesulfonic acid • ii. […] Assay a): DNAPK Enzyme Potency Assay (DNA-PK Enz)
The inhibitory activity of compounds against DNAPK was determined by TR-FRET measuring a fluorescent labelled peptide substrate converting to a phosphorylated product. Fluorescently tagged peptide substrate were purchased from Thermo Fisher Scientific. 12 point half-log compound concentration-response curves, with a top concentration of 100 μM were generated from 10 mM stocks of compound solubilised in DMSO using an Echo 555 (Labcyte Inc., Sunnyvale, CA). All assays were preformed in white Greiner 1536 well low volume plates (Greiner Bio-One, UK), in a total reaction volume of 3 μL and 1% (v/v) final DMSO concentration. Enzymes and substrates were added separately to the compound plates and incubated at room temperature. The kinase reaction was then quenched by the addition of 3 μL of stop buffer. Stopped assay plates were read using a BMG Pherastar. IC50 values were calculated using a Genedata Screener® software (Genedata, Inc., Basel, Switzerland).
Full length human DNAPK protein was purified from HeLa cell extract by ion exchange. Initially DNAPK protein was incubated with compound for 30 minutes at room temperature in reaction buffer (50 mM Hepes pH 7.5, 0.01% Brij-35, 10 mM MgCl2, 1 mM EGTA, 1 mM DTT, […] Calf Thymus DNA). The reaction was then initiated by the addition of ATP and fluorescently tagged peptide substrate (Fluorescein-[…], Thermo Fisher Scientific). […] The reaction was incubated for a further hour and the plates were read on a BMG Pherastar.
Data was analysed and IC50 values were calculated using Genedata Screener® software (Genedata, Inc., Basel, Switzerland).

TTK = TTK (Homo sapiens (Human), UniProt P33981); assay: TTK enzyme assay (LanthaScreen Eu Kinase Binding); details: arithmetic mean of two or more experiments; for IC50: read-out: TTK enz pIC50 (converted)
JAK2 = JAK2 (Homo sapiens (Human), UniProt O60674); assay: JAK2 enzyme assay (Z'-LYTE); format: biochemical; details: 25 μM ATP, arithmetic mean of two or more experiments; for IC50: read-out: JAK2 enz pIC50 (converted)
AURKA (Aurora A) = AURKA (Aurora A) (Homo sapiens (Human), UniProt O14965); assay: Aurora-A enzyme assay (Z'-LYTE); format: biochemical; details: 10 μM ATP, arithmetic mean of two or more experiments; for IC50: read-out: AurA enz pIC50 (converted)
AURKB (Aurora B) = AURKB (Aurora B) (Homo sapiens (Human), UniProt Q96GD4); assay: Aurora-B enzyme assay (Z'-LYTE); format: biochemical; details: 75 μM ATP, arithmetic mean of two or more experiments; for IC50: read-out: AurB enz pIC50 (converted)
Chain of AURKB (Aurora B) (Q96GD4 whole entry): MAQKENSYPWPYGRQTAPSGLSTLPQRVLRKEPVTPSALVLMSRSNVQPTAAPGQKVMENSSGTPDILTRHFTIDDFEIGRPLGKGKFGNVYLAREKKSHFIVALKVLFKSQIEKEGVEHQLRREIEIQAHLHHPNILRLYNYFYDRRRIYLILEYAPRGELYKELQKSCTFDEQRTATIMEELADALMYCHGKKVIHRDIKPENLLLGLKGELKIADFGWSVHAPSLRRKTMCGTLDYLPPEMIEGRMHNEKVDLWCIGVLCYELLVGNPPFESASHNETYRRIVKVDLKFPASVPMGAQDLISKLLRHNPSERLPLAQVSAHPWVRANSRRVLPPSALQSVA

Chain of TTK (P33981 whole entry): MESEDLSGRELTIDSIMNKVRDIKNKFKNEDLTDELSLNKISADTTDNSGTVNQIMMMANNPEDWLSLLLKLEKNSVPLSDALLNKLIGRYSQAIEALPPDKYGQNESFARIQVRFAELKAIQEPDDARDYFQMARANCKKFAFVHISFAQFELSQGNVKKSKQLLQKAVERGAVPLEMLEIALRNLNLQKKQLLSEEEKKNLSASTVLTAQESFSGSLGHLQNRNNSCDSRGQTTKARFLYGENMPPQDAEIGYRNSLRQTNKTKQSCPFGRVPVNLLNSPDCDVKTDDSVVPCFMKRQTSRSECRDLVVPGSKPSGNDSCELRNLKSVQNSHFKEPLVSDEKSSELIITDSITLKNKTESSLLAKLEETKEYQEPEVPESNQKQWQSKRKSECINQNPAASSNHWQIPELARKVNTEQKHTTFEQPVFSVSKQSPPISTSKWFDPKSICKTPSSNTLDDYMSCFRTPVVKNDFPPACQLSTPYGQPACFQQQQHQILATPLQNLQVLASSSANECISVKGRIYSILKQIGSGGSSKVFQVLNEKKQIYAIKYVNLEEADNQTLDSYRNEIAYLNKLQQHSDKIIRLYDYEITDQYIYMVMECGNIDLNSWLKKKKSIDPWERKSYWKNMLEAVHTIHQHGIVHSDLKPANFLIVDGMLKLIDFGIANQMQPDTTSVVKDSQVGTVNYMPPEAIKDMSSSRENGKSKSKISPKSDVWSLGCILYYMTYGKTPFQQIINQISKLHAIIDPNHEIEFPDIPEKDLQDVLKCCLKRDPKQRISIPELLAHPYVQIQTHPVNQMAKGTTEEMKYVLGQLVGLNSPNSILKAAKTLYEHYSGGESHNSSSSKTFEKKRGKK
Chain of JAK2 (O60674 whole entry): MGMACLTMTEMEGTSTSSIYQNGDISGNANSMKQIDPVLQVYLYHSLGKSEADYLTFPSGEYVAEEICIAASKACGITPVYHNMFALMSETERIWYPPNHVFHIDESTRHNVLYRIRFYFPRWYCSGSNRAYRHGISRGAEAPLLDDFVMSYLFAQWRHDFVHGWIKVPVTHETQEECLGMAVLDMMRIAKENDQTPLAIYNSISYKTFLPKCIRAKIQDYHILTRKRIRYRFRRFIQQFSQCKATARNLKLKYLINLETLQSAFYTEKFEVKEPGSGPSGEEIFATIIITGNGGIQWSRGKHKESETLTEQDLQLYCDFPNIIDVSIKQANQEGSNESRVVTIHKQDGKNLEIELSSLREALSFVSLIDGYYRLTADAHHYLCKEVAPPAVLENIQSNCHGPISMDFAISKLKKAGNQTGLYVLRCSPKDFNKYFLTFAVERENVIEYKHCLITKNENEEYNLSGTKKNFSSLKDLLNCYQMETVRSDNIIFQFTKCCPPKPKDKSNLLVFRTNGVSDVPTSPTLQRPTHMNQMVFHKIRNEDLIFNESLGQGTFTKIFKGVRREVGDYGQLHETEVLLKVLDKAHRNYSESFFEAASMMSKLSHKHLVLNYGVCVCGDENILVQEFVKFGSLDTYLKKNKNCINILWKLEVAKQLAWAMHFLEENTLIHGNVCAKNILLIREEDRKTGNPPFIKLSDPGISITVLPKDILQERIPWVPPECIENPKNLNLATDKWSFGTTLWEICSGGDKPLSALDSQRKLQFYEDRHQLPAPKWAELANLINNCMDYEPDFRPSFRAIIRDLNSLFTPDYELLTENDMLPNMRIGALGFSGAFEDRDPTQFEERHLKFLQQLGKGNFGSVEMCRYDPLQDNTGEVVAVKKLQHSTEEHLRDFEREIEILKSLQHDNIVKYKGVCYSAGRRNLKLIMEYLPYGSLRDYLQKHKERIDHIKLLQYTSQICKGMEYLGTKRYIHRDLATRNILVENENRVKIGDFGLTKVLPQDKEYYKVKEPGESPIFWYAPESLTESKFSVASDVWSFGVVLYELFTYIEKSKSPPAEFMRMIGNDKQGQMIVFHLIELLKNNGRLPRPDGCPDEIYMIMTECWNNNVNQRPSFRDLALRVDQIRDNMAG
Chain of AURKA (Aurora A) (O14965 whole entry): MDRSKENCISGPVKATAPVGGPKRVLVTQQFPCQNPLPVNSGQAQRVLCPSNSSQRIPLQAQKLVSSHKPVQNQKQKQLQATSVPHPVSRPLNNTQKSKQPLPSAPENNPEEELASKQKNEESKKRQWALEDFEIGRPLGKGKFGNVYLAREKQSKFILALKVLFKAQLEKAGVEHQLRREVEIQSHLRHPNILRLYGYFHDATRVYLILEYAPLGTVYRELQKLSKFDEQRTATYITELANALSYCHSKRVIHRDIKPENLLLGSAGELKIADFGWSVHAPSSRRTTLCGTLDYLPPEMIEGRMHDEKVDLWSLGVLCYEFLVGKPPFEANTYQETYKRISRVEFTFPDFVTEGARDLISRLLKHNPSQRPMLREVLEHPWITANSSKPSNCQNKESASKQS

Row | Compound | DNA-PK enz pIC50 [1] | TTK enz pIC50 (TTK) | JAK2 enz pIC50 (JAK2) | AurA enz pIC50 (AURKA (Aurora A)) | AurB enz pIC50 (AURKB (Aurora B)) | IC50 [1] [µM] | IC50 (TTK) [µM] | IC50 (JAK2) [µM] | IC50 (AURKA (Aurora A)) [µM] | IC50 (AURKB (Aurora B)) [µM]
1 | Cc1cc2nccnc2cc1Nc1ncc2c(n1)n([C@@H]1CCOC1)c(=O)n2C [Example 24, (R)-7-methyl-2-((7-methylquinoxalin-6-yl)amino)-9-(tetrahydrofuran-3-yl)-7,9-dihydro-8H-purin-8-one] | 9.1 | 5.6 | <5 | <5 | <5 |  |  |  |  | 
2 | Cc1cc2nnccc2cc1Nc1ncc2c(n1)n([C@@H]1CCCOC1)c(=O)n2C [Example 25, (R)-7-methyl-2-((7-methylcinnolin-6-yl)amino)-9-(tetrahydro-2H-pyran-3-yl)-7,9-dihydro-8H-purin-8-one] | 9.7 | 6.2 | <5 | <5 | <5 |  |  |  |  | 
3 | Cc1cc2nccnc2cc1Nc1ncc2c(n1)n([C@@H]1CCCOC1)c(=O)n2C [Example 26, (R)-7-methyl-2-((7-methylquinoxalin-6-yl)amino)-9-(tetrahydro-2H-pyran-3-yl)-7,9-dihydro-8H-purin-8-one] | 9.8 | 5.8 | <5 | <5 | <5 |  |  |  |  | 
4 | Cc1cc2nnccc2cc1Nc1ncc2c(n1)n([C@H]1CCCOC1)c(=O)n2C [Example 27, (S)-7-methyl-2-((7-methylcinnolin-6-yl)amino)-9-(tetrahydro-2H-pyran-3-yl)-7,9-dihydro-8H-purin-8-one] | >10 | 6.4 | <5 | <5 | <5 |  |  |  |  | 
5 | Cc1cc2nccnc2cc1Nc1ncc2c(n1)n([C@H]1CCCOC1)c(=O)n2C [Example 28, (S)-7-methyl-2-((7-methylquinoxalin-6-yl)amino)-9-(tetrahydro-2H-pyran-3-yl)-7,9-dihydro-8H-purin-8-one] | >10 | 6.1 | <5 | 5.3 | <5 |  |  |  |  | 
6 | Cc1cnc2cc(Nc3ncc4c(n3)n(C3CCOCC3)c(=O)n4C)c(C)cc2n1 [Example 33, 2-((2,7-dimethylquinoxalin-6-yl)amino)-7-methyl-9-(tetrahydro-2H-pyran-4-yl)-7,9-dihydro-8H-purin-8-one] |  |  |  |  |  | 0.000501 | 1.26 | > 10 | > 10 | > 10
7 | Cc1cnc2cc(C)c(Nc3ncc4c(n3)n(C3CCOCC3)c(=O)n4C)cc2n1 [Example 34, 2-((3,7-dimethylquinoxalin-6-yl)amino)-7-methyl-9-(tetrahydro-2H-pyran-4-yl)-7,9-dihydro-8H-purin-8-one] |  |  |  |  |  | < 0.0001 | 5.01 | > 10 | > 10 | > 10
8 | Cc1cc2ncccc2cc1Nc1ncc2c(n1)n(C1CCS(=O)(=O)CC1)c(=O)n2C [Example 35, 9-(1,1-dioxidotetrahydro-2H-thiopyran-4-yl)-7-methyl-2-((7-methylquinolin-6-yl)amino)-7,9-dihydro-8H-purin-8-one] | >10 | 5.9 | <5 | <5 | <5 |  |  |  |  | 
9 | Cc1cc2ncccc2cc1Nc1ncc2c(n1)n(C1COC1)c(=O)n2C [Example 36, 7-methyl-2-((7-methylquinolin-6-yl)amino)-9-(oxetan-3-yl)-7,9-dihydro-8H-purin-8-one] | 9.7 | 6.0 | <5.1 | <5 | <5 |  |  |  |  | 
10 | Cc1cc2ncccc2cc1Nc1ncc2c(n1)n([C@@H]1CCNC[C@@H]1F)c(=O)n2C [Example 38, 9-((3S,4R)-3-fluoropiperidin-4-yl)-7-methyl-2-((7-methylquinolin-6-yl)amino)-7,9-dihydro-8H-purin-8-one] | 8.0 | <5.1 | <5 | <5 | <5 |  |  |  |  | 
11 | Cc1cc2ncccc2cc1Nc1ncc2c(n1)n([C@H]1CC[C@@](C)(N)CC1)c(=O)n2C [Example 39, 9-((1s,4s)-4-amino-4-methylcyclohexyl)-7-methyl-2-((7-methylquinolin-6-yl)amino)-7,9-dihydro-8H-purin-8-one] |  |  |  |  |  | 0.001 | 3.98 | > 10 | > 10 | > 10
12 | Cc1cc2ncccc2cc1Nc1ncc2c(n1)n([C@H]1CC[C@](C)(N)CC1)c(=O)n2C [Example 40, 9-((1r,4r)-4-amino-4-methylcyclohexyl)-7-methyl-2-((7-methylquinolin-6-yl)amino)-7,9-dihydro-8H-purin-8-one] |  |  |  |  |  | 0.000316 | 1.58 | > 10 | > 10 | > 10
13 | Cc1cc2ncccc2cc1Nc1ncc2c(n1)n([C@@H]1CCN(C)C[C@@H]1F)c(=O)n2C [Example 46, 9-((3S,4R)-3-fluoro-1-methylpiperidin-4-yl)-7-methyl-2-((7-methylquinolin-6-yl)amino)-7,9-dihydro-8H-purin-8-one] | 8.1 | 5.4 | <5 | <5 | <5 |  |  |  |  | 
14 | Cc1cc2ncccc2cc1Nc1ncc2c(n1)n(C1CCN(C3COC3)CC1)c(=O)n2C [Example 47, 7-methyl-2-((7-methylquinolin-6-yl)amino)-9-(1-(oxetan-3-yl)piperidin-4-yl)-7,9-dihydro-8H-purin-8-one] | 9.0 | 5.8 | <5 | <5 | <5 |  |  |  |  | 
15 | Cc1cc2ncccc2cc1Nc1ncc2c(n1)n(C1CCN(CCO)CC1)c(=O)n2C [Example 48, 9-(1-(2-hydroxyethyl)piperidin-4-yl)-7-methyl-2-((7-methylquinolin-6-yl)amino)-7,9-dihydro-8H-purin-8-one] | 9.0 | 5.9 | <5 | <5 | <5 |  |  |  |  | 
